# Assays:
# Type in all cases: in vivo, human
# [1] = tested on: patient with peripheral sensory neuropathy of feet and hands with hypoesthesia and proprioceptive disorders; assay: Case report: amiloride cream on hypoesthetic areas, neuropathy induced by Ado-trastuzumab emtansine (T-DM1); conditions: cream of amiloride 5%, applied locally to hypoesthetic areas twice a day
# Text: A patient received Ado-trastuzumab emtansine (T-DM1), the first HER2-targeted antibody-drug conjugate to get the approval of the Food and Drug Administration (FDA), for the treatment of their metastatic HER2-positive breast cancer.
# For more than 2 years, they had repeated falls due to loss of feeling in their feet, cuts on their hands, unnoticed burns, “splinters in the skin following their gardening activities” with infection in the aftermath because they had not realized it.
# They complained of often dropping objects held in their hands and of no longer being able to sew due to the impossibility of holding a fine needle.
# They were treated with a cream of amiloride 5% applied locally to the hypoesthetic areas twice a day.
# [2] = tested on: patient with hypoesthesia and proprioceptive disorders; assay: Case report: amiloride cream on hypoesthetic areas, hypoesthesia and proprioceptive disorders after bortezomib; conditions: cream of amiloride 10%, twice a day, after 1 month of use
# Method: A patient suffered from hypoesthesia and proprioceptive disorders with difficulty gripping the foot on the ground, impression of walking on cotton and complained of the impression of having a permanently rolled sock under the feet in addition to a sensation of having edematous toes since they received a treatment with bortezomib in 2016 for treating their myeloma. They were treated with a cream of amiloride 10% applied locally to the hypoesthetic areas twice a day.
# [3] = tested on: patient with hypoesthesia with lost sensations in feet and fingertips; assay: Case report: amiloride cream, hypoesthesia after oxaliplatine
# Method: A patient suffering from colon cancer was treated for 4 months with oxaliplatine in December 2019. They developed hypoesthesia with lost sensations in feet and in the fingertips of both hands and complained of having the impression of a permanently “rolled sock” under the feet. They were treated with a cream of amiloride 10% applied twice a day during one month and they noticed an improvement in the feeling of the right foot “rolled sock” (4/10 vs 8/10 before this treatment), a little less on the left foot (6/10 vs 8/10).
# [4] = tested on: patients with somatosensory impairments; assay: Summary statement: patients treated with a topical composition of amiloride
compound,measurement,setting,value
"NC(N)=NC(=O)c1nc(Cl)c(N)nc1N [amiloride, 3,5-diamino-6-chloro-N-(diaminomethylidene) pyrazine-2-carboxamide]",sensation of hands and feet,[1],regained the sensation of their hands and feet
same,impression of having a permanently rolled sock under the feet,[2],disappeared
same,impression of walking on cotton,[2],disappeared
same,sensation of edema of the toes,[2],has disappeared
same,feeling of hot and cold on the soles of the feet,[2]; patient,feels better hot and cold on the soles of their feet
same,"sensation ""rolled sock""",[3]; amiloride concentration in the cream increased to 15%,further decrease the sensation “rolled sock” even on the left foot
same,sensitivity in the fingertips of both hands,"[3]; cream of amiloride 10%, twice a day during one month",regained the sensitivity in the fingertips of both hands
same,"feeling of ""rolled sock"", left foot","[3]; cream of amiloride 10%, twice a day during one month, 8/10 before treatment",6/10
same,"feeling of ""rolled sock"", right foot","[3]; cream of amiloride 10%, twice a day during one month, 8/10 before treatment, patient",4/10
same,"sensations in insensitive body areas, proprioception and mechanical allodynia",[4],able to recover sensations in insensitive body areas and a correct proprioception and noted the disappearance of mechanical allodynia

# From patent publication US20250152583A1, “AMILORIDE FOR USE IN THE TOPICAL TREATMENT OF SOMATOSENSORY IMPAIRMENTS” (ASSISTANCE PUBLIQUE - HOPITAUX DE PARIS, priority 2022, published 2025)
